{
  "source": "the kinase profiling compilation of Christmann-Franck et al. (2016)",
  "test_in_all_cases": "radiometric filter-binding kinase assay, Kinase HotSpot",
  "details_in_all_cases": "compound 0.5 µM; ATP 10 µM",
  "key": {"[1]": {"molecular_target": "AKT1 (human) (UniProt P31749)"}, "[2]": {"molecular_target": "AKT3 (human) (UniProt Q9Y243)"}, "[3]": {"molecular_target": "BLK (human) (UniProt P51451)"}, "[4]": {"molecular_target": "BMX (human) (UniProt P51813)"}, "[5]": {"molecular_target": "CAMK2B (human) (UniProt Q13554)", "sequence (Q13554 whole entry, looked up)": "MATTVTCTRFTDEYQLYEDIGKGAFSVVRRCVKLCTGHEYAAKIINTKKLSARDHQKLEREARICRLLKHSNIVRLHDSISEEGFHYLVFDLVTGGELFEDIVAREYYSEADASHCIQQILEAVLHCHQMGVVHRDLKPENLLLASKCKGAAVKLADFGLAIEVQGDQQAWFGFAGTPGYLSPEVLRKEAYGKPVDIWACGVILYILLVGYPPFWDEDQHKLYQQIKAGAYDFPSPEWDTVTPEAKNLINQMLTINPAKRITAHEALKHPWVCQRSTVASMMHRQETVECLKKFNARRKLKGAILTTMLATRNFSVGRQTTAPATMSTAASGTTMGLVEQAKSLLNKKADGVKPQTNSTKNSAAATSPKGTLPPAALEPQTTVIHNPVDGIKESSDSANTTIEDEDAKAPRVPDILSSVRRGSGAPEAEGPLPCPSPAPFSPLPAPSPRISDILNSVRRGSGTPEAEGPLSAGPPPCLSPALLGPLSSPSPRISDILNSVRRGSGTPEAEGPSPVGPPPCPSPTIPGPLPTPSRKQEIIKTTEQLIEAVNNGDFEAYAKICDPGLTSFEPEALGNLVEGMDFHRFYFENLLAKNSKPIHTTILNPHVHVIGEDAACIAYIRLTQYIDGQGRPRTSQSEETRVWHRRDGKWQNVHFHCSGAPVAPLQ"}, "[6]": {"molecular_target": "CDC42BPA (human) (UniProt Q5VT25)"}, "[7]": {"molecular_target": "CDK3 CCNE1 (human) (UniProt Q00526+P24864)", "sequence (P24864 whole entry, looked up)": "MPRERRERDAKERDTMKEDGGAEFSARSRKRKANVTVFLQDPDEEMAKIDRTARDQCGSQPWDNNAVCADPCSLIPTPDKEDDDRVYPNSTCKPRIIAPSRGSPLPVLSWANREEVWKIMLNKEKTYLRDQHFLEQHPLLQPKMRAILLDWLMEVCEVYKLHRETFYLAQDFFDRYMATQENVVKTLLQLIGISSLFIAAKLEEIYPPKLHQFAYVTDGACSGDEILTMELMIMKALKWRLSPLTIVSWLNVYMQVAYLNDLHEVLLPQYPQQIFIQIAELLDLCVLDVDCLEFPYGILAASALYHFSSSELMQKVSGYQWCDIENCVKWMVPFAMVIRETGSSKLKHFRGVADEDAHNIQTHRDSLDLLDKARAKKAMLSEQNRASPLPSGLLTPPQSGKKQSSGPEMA", "sequence (Q00526 whole entry, looked up)": "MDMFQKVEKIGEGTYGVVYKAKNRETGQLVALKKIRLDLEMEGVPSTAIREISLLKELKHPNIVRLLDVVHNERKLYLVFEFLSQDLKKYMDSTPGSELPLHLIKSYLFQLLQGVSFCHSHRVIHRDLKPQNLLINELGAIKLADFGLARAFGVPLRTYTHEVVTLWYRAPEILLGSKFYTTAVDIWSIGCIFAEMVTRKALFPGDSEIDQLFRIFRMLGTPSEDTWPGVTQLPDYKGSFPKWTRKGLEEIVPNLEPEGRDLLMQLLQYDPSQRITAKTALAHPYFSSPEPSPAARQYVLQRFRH"}, "[8]": {"molecular_target": "CLK2 (human) (UniProt P49760)"}, "[9]": {"molecular_target": "CSK (human) (UniProt P41240)"}, "[10]": {"molecular_target": "DDR2 (human) (UniProt Q16832)"}, "[11]": {"molecular_target": "EPHA2 (human) (UniProt P29317)"}, "[12]": {"molecular_target": "EPHA8 (human) (UniProt P29322)"}, "[13]": {"molecular_target": "GRK4 (human) (UniProt P32298)"}, "[14]": {"molecular_target": "GRK5 (human) (UniProt P34947)"}, "[15]": {"molecular_target": "GRK7 (human) (UniProt Q8WTQ7)"}, "[16]": {"molecular_target": "KDR (human) (UniProt P35968)"}, "[17]": {"molecular_target": "KIT (human) (UniProt P10721)"}, "[18]": {"molecular_target": "LCK (human) (UniProt P06239)"}, "[19]": {"molecular_target": "LYN (human) (UniProt P07948)", "sequence (P07948 whole entry, looked up)": "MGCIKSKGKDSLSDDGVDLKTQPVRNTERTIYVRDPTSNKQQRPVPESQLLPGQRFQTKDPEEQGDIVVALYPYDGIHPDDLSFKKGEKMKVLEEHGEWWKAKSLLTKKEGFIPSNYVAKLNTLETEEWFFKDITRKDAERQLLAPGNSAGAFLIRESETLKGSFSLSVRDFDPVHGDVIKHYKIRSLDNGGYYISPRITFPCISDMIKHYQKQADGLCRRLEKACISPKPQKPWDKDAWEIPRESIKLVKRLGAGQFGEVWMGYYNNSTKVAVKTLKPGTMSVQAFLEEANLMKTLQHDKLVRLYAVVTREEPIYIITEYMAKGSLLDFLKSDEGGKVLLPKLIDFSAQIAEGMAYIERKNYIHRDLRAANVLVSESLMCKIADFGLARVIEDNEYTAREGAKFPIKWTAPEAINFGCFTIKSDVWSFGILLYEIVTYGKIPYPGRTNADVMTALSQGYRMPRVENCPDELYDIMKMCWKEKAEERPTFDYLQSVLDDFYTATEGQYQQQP"}, "[20]": {"molecular_target": "MAP3K5 (human) (UniProt Q99683)"}, "[21]": {"molecular_target": "MLTK (human) (UniProt Q9NYL2)"}, "[22]": {"molecular_target": "NEK1 (human) (UniProt Q96PY6)"}, "[23]": {"molecular_target": "NEK3 (human) (UniProt P51956)", "sequence (P51956 whole entry, looked up)": "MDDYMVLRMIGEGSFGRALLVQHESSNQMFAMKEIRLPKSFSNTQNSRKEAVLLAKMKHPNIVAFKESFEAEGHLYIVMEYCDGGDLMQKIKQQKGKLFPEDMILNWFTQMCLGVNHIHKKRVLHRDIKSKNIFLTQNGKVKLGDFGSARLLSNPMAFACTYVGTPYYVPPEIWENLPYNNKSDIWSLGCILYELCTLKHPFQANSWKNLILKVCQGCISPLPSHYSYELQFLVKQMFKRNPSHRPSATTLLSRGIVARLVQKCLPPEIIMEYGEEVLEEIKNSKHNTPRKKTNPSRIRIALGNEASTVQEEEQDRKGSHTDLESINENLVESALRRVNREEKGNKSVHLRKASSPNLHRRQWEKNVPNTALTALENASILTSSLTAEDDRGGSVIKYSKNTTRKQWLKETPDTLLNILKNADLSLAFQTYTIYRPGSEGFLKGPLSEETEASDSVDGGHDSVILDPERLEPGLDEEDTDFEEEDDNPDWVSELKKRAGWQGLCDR"}, "[24]": {"molecular_target": "NLK (human) (UniProt Q9UBE8)"}, "[25]": {"molecular_target": "NUAK1 (human) (UniProt O60285)"}, "[26]": {"molecular_target": "OXSR1 (human) (UniProt O95747)", "sequence (O95747 whole entry, looked up)": "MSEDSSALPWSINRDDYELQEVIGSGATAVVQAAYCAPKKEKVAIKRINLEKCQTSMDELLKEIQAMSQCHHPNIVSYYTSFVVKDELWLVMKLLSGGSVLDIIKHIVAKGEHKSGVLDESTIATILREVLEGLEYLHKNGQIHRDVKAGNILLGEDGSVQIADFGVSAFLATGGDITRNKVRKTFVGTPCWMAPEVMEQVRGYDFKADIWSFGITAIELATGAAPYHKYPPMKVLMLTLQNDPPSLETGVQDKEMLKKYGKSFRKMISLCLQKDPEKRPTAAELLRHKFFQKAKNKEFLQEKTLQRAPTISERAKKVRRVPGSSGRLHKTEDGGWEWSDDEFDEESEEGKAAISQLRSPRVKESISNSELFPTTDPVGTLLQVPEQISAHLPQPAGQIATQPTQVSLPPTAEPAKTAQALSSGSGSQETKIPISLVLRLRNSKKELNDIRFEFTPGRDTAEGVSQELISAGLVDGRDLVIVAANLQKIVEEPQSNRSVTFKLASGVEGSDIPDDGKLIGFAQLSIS"}, "[27]": {"molecular_target": "PDGFRA (human) (UniProt P16234)"}, "[28]": {"molecular_target": "PRKCD (human) (UniProt Q05655)"}, "[29]": {"molecular_target": "PRKCG (human) (UniProt P05129)"}, "[30]": {"molecular_target": "PRKCH (human) (UniProt P24723)"}, "[31]": {"molecular_target": "PRKG2 (human) (UniProt Q13237)"}, "[32]": {"molecular_target": "PRKX (human) (UniProt P51817)", "sequence (P51817 whole entry, looked up)": "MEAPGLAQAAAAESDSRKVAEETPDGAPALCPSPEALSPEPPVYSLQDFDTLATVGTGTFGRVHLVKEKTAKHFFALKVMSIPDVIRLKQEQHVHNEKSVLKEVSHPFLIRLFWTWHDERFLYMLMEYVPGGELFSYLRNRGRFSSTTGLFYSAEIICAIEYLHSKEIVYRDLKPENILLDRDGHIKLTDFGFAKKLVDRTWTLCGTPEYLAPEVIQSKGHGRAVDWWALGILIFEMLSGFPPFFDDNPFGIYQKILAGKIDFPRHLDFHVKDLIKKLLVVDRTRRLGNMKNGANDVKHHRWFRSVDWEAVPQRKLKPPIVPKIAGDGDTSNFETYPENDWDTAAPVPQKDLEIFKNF"}, "[33]": {"molecular_target": "PTK2 (human) (UniProt Q05397)"}, "[34]": {"molecular_target": "ROS1 (human) (UniProt P08922)"}, "[35]": {"molecular_target": "RPS6KB1 (human) (UniProt P23443)"}, "[36]": {"molecular_target": "SIK2 (human) (UniProt Q9H0K1)", "sequence (Q9H0K1 whole entry, looked up)": "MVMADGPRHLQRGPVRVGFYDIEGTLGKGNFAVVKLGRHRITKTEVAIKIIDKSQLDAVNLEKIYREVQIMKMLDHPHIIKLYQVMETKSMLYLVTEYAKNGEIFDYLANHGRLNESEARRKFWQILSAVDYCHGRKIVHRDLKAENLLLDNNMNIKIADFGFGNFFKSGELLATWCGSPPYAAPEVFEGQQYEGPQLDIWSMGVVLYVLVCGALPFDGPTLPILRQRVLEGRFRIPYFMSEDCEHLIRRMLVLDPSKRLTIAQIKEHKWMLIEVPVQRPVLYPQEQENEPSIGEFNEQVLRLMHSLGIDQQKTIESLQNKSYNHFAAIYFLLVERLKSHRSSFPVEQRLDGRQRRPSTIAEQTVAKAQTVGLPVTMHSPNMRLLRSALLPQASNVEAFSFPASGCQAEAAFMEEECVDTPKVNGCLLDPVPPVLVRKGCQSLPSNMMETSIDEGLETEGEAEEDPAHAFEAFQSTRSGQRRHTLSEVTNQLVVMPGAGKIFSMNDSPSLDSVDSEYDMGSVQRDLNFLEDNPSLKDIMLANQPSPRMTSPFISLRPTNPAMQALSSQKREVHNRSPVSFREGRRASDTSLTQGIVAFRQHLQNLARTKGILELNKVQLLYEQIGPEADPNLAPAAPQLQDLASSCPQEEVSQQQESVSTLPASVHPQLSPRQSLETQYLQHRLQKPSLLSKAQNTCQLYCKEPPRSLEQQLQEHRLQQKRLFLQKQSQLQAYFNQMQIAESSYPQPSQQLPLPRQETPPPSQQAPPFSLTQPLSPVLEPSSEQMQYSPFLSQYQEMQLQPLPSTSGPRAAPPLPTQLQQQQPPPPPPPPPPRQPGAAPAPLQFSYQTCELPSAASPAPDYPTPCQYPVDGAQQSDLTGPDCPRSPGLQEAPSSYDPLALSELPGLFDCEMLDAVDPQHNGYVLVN"}, "[37]": {"molecular_target": "SRMS (human) (UniProt Q9H3Y6)"}, "[38]": {"molecular_target": "SRPK2 (human) (UniProt P78362)"}, "[39]": {"molecular_target": "TAOK2 (human) (UniProt Q9UL54)"}, "[40]": {"molecular_target": "TBK1 (human) (UniProt Q9UHD2)", "sequence (Q9UHD2 whole entry, looked up)": "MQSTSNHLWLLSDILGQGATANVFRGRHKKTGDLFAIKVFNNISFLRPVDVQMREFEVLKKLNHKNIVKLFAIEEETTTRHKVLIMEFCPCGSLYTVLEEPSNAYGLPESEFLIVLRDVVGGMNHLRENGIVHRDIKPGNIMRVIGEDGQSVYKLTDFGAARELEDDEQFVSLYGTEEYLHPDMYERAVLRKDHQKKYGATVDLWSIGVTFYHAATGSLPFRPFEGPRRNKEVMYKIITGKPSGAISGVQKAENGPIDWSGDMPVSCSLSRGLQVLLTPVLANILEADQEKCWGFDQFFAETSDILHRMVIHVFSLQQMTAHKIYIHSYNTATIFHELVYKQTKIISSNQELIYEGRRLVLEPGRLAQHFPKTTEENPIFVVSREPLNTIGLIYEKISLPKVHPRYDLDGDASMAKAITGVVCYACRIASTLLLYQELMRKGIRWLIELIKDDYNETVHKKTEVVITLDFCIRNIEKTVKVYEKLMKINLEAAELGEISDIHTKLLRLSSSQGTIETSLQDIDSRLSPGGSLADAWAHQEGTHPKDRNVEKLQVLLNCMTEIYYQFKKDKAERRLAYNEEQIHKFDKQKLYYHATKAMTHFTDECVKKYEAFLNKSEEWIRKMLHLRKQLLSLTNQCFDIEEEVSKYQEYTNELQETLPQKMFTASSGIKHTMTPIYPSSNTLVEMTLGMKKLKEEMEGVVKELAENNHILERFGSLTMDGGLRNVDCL"}, "[41]": {"molecular_target": "ULK1 (human) (UniProt O75385)"}, "[42]": {"molecular_target": "IKBKB (human) (UniProt O14920)"}},
  "note": "Where “and” joins values, the source holds several entries; their conditions need not be identical. Equal entries are not always repeated.",
  "data": [
    {"smiles": "CSc1nc(-c2ccc(F)cc2)c(-c2ccnc(NC(C)c3ccccc3)c2)[nH]1", "note": "(configuration not stated)", "values": [
      {"measurement": "residual activity", "setting": "[1]", "result": 101, "unit": "%"},
      {"measurement": "residual activity", "setting": "[2]", "result": 91.5, "unit": "%"},
      {"measurement": "residual activity", "setting": "[3]", "result": 110, "unit": "%"},
      {"measurement": "residual activity", "setting": "[4]", "result": 102, "unit": "%"},
      {"measurement": "residual activity", "setting": "[5]", "result": 89.2, "unit": "%"},
      {"measurement": "residual activity", "setting": "[6]", "result": 97.5, "unit": "%"},
      {"measurement": "residual activity", "setting": "[7]", "result": 85.3, "unit": "%"},
      {"measurement": "residual activity", "setting": "[8]", "result": 102, "unit": "%"},
      {"measurement": "residual activity", "setting": "[9]", "result": 82.4, "unit": "%"},
      {"measurement": "residual activity", "setting": "[10]", "result": 89.8, "unit": "%"},
      {"measurement": "residual activity", "setting": "[11]", "result": 98.8, "unit": "%"},
      {"measurement": "residual activity", "setting": "[12]", "result": 82.2, "unit": "%"},
      {"measurement": "residual activity", "setting": "[13]", "result": 90.6, "unit": "%"},
      {"measurement": "residual activity", "setting": "[14]", "result": 103, "unit": "%"},
      {"measurement": "residual activity", "setting": "[15]", "result": 100, "unit": "%"},
      {"measurement": "residual activity", "setting": "[16]", "result": 83.5, "unit": "%"},
      {"measurement": "residual activity", "setting": "[17]", "result": 92.4, "unit": "%"},
      {"measurement": "residual activity", "setting": "[18]", "result": 102, "unit": "%"},
      {"measurement": "residual activity", "setting": "[19]", "result": "89.4% and 98.5%"},
      {"measurement": "residual activity", "setting": "[20]", "result": 106, "unit": "%"},
      {"measurement": "residual activity", "setting": "[21]", "result": 85.7, "unit": "%"},
      {"measurement": "residual activity", "setting": "[22]", "result": 86.3, "unit": "%"},
      {"measurement": "residual activity", "setting": "[23]", "result": 94.7, "unit": "%"},
      {"measurement": "residual activity", "setting": "[24]", "result": 30.7, "unit": "%"},
      {"measurement": "residual activity", "setting": "[25]", "result": 94.3, "unit": "%"},
      {"measurement": "residual activity", "setting": "[26]", "result": 88.2, "unit": "%"},
      {"measurement": "residual activity", "setting": "[27]", "result": 102, "unit": "%"},
      {"measurement": "residual activity", "setting": "[28]", "result": 89.1, "unit": "%"},
      {"measurement": "residual activity", "setting": "[29]", "result": 101, "unit": "%"},
      {"measurement": "residual activity", "setting": "[30]", "result": 94.5, "unit": "%"},
      {"measurement": "residual activity", "setting": "[31]", "result": 102, "unit": "%"},
      {"measurement": "residual activity", "setting": "[32]", "result": 91.5, "unit": "%"},
      {"measurement": "residual activity", "setting": "[33]", "result": 99.1, "unit": "%"},
      {"measurement": "residual activity", "setting": "[34]", "result": 99.1, "unit": "%"},
      {"measurement": "residual activity", "setting": "[35]", "result": 91.2, "unit": "%"},
      {"measurement": "residual activity", "setting": "[36]", "result": 97.2, "unit": "%"},
      {"measurement": "residual activity", "setting": "[37]", "result": 104, "unit": "%"},
      {"measurement": "residual activity", "setting": "[38]", "result": 94.4, "unit": "%"},
      {"measurement": "residual activity", "setting": "[39]", "result": 92.7, "unit": "%"},
      {"measurement": "residual activity", "setting": "[40]", "result": 92, "unit": "%"},
      {"measurement": "residual activity", "setting": "[41]", "result": 110, "unit": "%"}
    ]},
    {"smiles": "O=C(Nc1ccc(Cl)cc1)c1ccccc1NCc1ccncc1", "values": [
      {"measurement": "residual activity", "setting": "[1]", "result": 97.6, "unit": "%"},
      {"measurement": "residual activity", "setting": "[2]", "result": 97.9, "unit": "%"},
      {"measurement": "residual activity", "setting": "[3]", "result": 102, "unit": "%"},
      {"measurement": "residual activity", "setting": "[4]", "result": 90.5, "unit": "%"},
      {"measurement": "residual activity", "setting": "[5]", "result": 93.4, "unit": "%"},
      {"measurement": "residual activity", "setting": "[6]", "result": 90.5, "unit": "%"},
      {"measurement": "residual activity", "setting": "[7]", "result": 87.4, "unit": "%"},
      {"measurement": "residual activity", "setting": "[8]", "result": 91.8, "unit": "%"},
      {"measurement": "residual activity", "setting": "[9]", "result": 101, "unit": "%"},
      {"measurement": "residual activity", "setting": "[10]", "result": 88.9, "unit": "%"},
      {"measurement": "residual activity", "setting": "[11]", "result": 101, "unit": "%"},
      {"measurement": "residual activity", "setting": "[12]", "result": 87.6, "unit": "%"},
      {"measurement": "residual activity", "setting": "[13]", "result": 96.8, "unit": "%"},
      {"measurement": "residual activity", "setting": "[14]", "result": 97.3, "unit": "%"},
      {"measurement": "residual activity", "setting": "[15]", "result": 96.2, "unit": "%"},
      {"measurement": "residual activity", "setting": "[42]", "result": 99.3, "unit": "%"},
      {"measurement": "residual activity", "setting": "[16]", "result": 28.2, "unit": "%"},
      {"measurement": "residual activity", "setting": "[17]", "result": 33.6, "unit": "%"},
      {"measurement": "residual activity", "setting": "[18]", "result": 93.3, "unit": "%"},
      {"measurement": "residual activity", "setting": "[19]", "result": "75.1% and 93.7%"},
      {"measurement": "residual activity", "setting": "[21]", "result": 86, "unit": "%"},
      {"measurement": "residual activity", "setting": "[22]", "result": 96, "unit": "%"},
      {"measurement": "residual activity", "setting": "[23]", "result": 90.5, "unit": "%"},
      {"measurement": "residual activity", "setting": "[24]", "result": 87.2, "unit": "%"},
      {"measurement": "residual activity", "setting": "[25]", "result": 96.5, "unit": "%"},
      {"measurement": "residual activity", "setting": "[26]", "result": 96.8, "unit": "%"},
      {"measurement": "residual activity", "setting": "[27]", "result": 81.3, "unit": "%"},
      {"measurement": "residual activity", "setting": "[28]", "result": 84.7, "unit": "%"},
      {"measurement": "residual activity", "setting": "[29]", "result": 102, "unit": "%"},
      {"measurement": "residual activity", "setting": "[30]", "result": 96.2, "unit": "%"},
      {"measurement": "residual activity", "setting": "[31]", "result": 99.1, "unit": "%"},
      {"measurement": "residual activity", "setting": "[32]", "result": 90.5, "unit": "%"},
      {"measurement": "residual activity", "setting": "[33]", "result": 95.7, "unit": "%"},
      {"measurement": "residual activity", "setting": "[34]", "result": 100, "unit": "%"},
      {"measurement": "residual activity", "setting": "[35]", "result": 92.5, "unit": "%"},
      {"measurement": "residual activity", "setting": "[36]", "result": 94.8, "unit": "%"},
      {"measurement": "residual activity", "setting": "[37]", "result": 97.9, "unit": "%"},
      {"measurement": "residual activity", "setting": "[38]", "result": 85.1, "unit": "%"},
      {"measurement": "residual activity", "setting": "[39]", "result": 102, "unit": "%"},
      {"measurement": "residual activity", "setting": "[40]", "result": 88.4, "unit": "%"},
      {"measurement": "residual activity", "setting": "[41]", "result": 86.9, "unit": "%"}
    ]}
  ]
}
